This assay has as its system mouse ADAMTS7. In words: TMT10 TAILS N-terminomics, SMC1 experiment (Ad-mADAMTS7 WT vs EQ vs Luc, technical replicates, trypsin digest). Type of assay: cell-based. Particulars: TAILS neo-N-terminal peptide abundance; log fold change, Ad-mADAMTS7 WT over EQ. The text has this: ADAMTS7 Expression, Cell Culture and Preparation of the Secreted Proteins—Full-length mouse Adamts7 1-1857 (Uniprot Q68SA9, WT or E373Q catalytic mutant) with a carboxyl terminal 3xFLAG tag was used to generate custom adenoviruses as previously described. Adeno-CMV-Luciferase (Ad-Luc) from Vector Biolabs was used as a negative control. Human Coronary Artery Smooth Muscle Cells (HCA-SMC) were obtained from Lonza and expanded in Lonza SmGM-2 media in 15 cm tissue culture plates. Twenty-four hours before media collection, near confluent plates were transduced with 50 MOI adenovirus and switched to Lonza Basal SM media with volumes of 20 ml per 15 cm plate. Expression of the Flag tagged ADAMTS7 was confirmed from the media using western blot and detected using the anti-Flag M2-HRP antibody (Sigma, A8592). Collected media was processed by adding protease inhibitors (1 mM EDTA and 1 mM PMSF) and clarified by 500 g×5 min spin at 4 C to pellet cell debris. Cell media supernatants were then passed through a 0.22 um filter and kept chilled. Processed media was then concentrated 50-100× using 3 kDa Centricon Plus-70 filter unit, spun at 3,500 g×60 min at 4 C. Approximately 10% of the processed, concentrated media was set aside for total secretome proteolytic analysis. The remaining 90% of the processed, concentrated media was buffer exchanged into 50 mM HEPES pH 8.0, 150 mM NaCl (2×50 ml) using the 3 kDa Centricon Plus-70 filter unit and concentrated to >2 mg/ml to serve as input for the TAILS experiment. Secretome and TAILS input samples were stored at −80° C.
For the first experiment, referred to as SMC1, 120 ml of media from 6×15 cm dishes was pooled from each condition (Luc, WT, EQ) and processed to produce three separate inputs for the TAILS experiment. Luc, WT and EQ inputs from the SMC1 experiment were each divided into triplicate 400 ug samples to generate technical replicate TAILS data. For the second experiment, referred to as SMC2, media was processed separately in triplicate for each condition (Luc1, Luc2, Luc3, WT1, WT2, WT3, EQ1, EQ2, EQ3) using 60 ml of media from 3×15 cm dishes for each process replicate. Inputs from the SMC2 experiment used process replicates of 300 ug each to generate TAILS data. The third experiment used input from cultured Human umbilical vein endothelial cells (HUVEC) from Lifeline Cell Technology grown in VascuLife Media and transduced in Lifeline Basal EC (+bFGF2 10 ng/ml). The HUVEC experiment used the same strategy as the SMC2 experiment, with 40 ml of media from 2×15 cm dishes for each process replicate and used 200 ug each to generate TAILS data. Inputs for process replicate experiments were restricted to the lowest concentration from the 9 parallel samples for SMC2 or HUVEC.
TMT10 isotopic labeling and negative selection of non-labeled peptides-Sample preparation was performed based on the TAILS protocol from the Overall lab with some modifications. From a single experiment, nine parallel protein samples in 50 mM HEPES pH 8.0, 150 mM NaCl were separately denatured with guanidinium chloride (Sigma, G4505) to reach a final concentration of 2.5M guanidinium chloride and 250 mM HEPES and incubated at 65° C. for 15 min. Reduction was achieved through addition of tris(2-carboxylethyl) phosphine (TCEP) at a final concentration of […] and incubated at 65° C. for 45 min. Alkylation reaction was performed with addition of iodoacetamide (IAA, Sigma, A3221) to a final concentration of 10 mM IAA for 15 min at room temperature in the dark. Following denaturation, reduction and alkylation steps, ten percent of each of the nine parallel protein samples was removed and combined to serve as a pooled reference. Isobaric tags were added to free amine groups using the TMT10plex Isobaric Mass Tagging Kit (ThermoFisher, 90113) with TMT channels randomly assigned to the nine samples and TMT 131 assigned to the pooled reference. […]
For “LOX_58 (LSLGSQYQPQR; listed as Homo sapiens)”, the logFC.mWT.over.mEQ was determined as 0.99.

“LOX_80 (ANASAQQPR; listed as Homo sapiens)” came in with a logFC.mWT.over.mEQ of 2.18.

With “LOX_81 (NASAQQPR; listed as Homo sapiens)”, the logFC.mWT.over.mEQ was found to be 1.69.

On to “LOX_123 (HWFQAGYSTSR; listed as Homo sapiens)”, for which the logFC.mWT.over.mEQ worked out at 1.82.

With “LOX_124 (WFQAGYSTSR; listed as Homo sapiens)”, the logFC.mWT.over.mEQ came out at 3.62.

With “LOX_126 (QAGYSTSR; listed as Homo sapiens)”, the logFC.mWT.over.mEQ came to 1.59.

“LTBP1_393 (LTATNFR; listed as Homo sapiens)” came in with a logFC.mWT.over.mEQ of 3.89.

Regarding “LTBP1_494 (SVQIHQVSR; listed as Homo sapiens)”, the logFC.mWT.over.mEQ is given as 2.63.

With “LTBP1_540 (HQQVIPHVYPVAAKTQLGR; listed as Homo sapiens)”, the logFC.mWT.over.mEQ worked out at 2.70.

“LTBP1_546 (HVYPVAAKTQLGR; listed as Homo sapiens)” had a logFC.mWT.over.mEQ of 4.67.

“LTBP2_485 (SVQIHQVAQVR; listed as Homo sapiens)” registered a logFC.mWT.over.mEQ of 2.23.

“LTBP2_533 (SGEPPRPLPPAAPR; listed as Homo sapiens)” gave a logFC.mWT.over.mEQ of 1.06.

Take “LTBP2_677 (SLGPGTCTLPLAQR; listed as Homo sapiens)”: the logFC.mWT.over.mEQ was found to be 0.85.

The substance “LTBP2_760 (SSGALPGPAER; listed as Homo sapiens)” gave a logFC.mWT.over.mEQ of 1.24.

Substance “LTBP2_1023 (GKCTNLEGSFR; listed as Homo sapiens)” had a logFC.mWT.over.mEQ of 0.71.

Turning to “LTBP2_1371 (SGQKGHAPCSSVLGR; listed as Homo sapiens)”, the logFC.mWT.over.mEQ is 0.93.

As to “LTBP2_1560 (TTYTECCCQDGEAWSQQCALCPPR; listed as Homo sapiens)”, the logFC.mWT.over.mEQ is 0.71.

On to “LTBP2_1584 (SSEVYAQLCNVAR; listed as Homo sapiens)”, for which the logFC.mWT.over.mEQ was 1.08.

(Values after US20240368668A1, “SUBSTRATES AND BIOMARKERS OF ADAMTS7” (The Broad Institute, Inc., priority 2021, published 2024).)
